Patent US7795226B2, “Control of radiation injury” (Biotempt B.V., priority 2006, dated 2010)
Where “and” joins values, the source holds several entries; their conditions need not be identical. Equal entries are not always repeated.

Columns and labels:
[1] = test system: spleen cell suspensions stimulated with anti-CD3 antibody; assay: anti-CD3 induced proliferation of spleen cells from peptide-treated mice; assay type: cell-based; conditions: mice treated i.p. 0.5 or 5 mg/kg for one hour; 0, 12, 24 and 48 hours culture
Experimental: FIG. 4: A test on representative oligopeptides for their effect on proliferation during rapid growth of murine monocytes induced by CD3 when avid cell division occurs. Mice (n=5) were treated i.p. PBS, Nak4 (LQGV (SEQ ID NO:117)), Nak47 (LAGV (SEQ ID NO:121)), Nak46 (AQGV (SEQ ID NO:120)) provided by Ansynth BV, The Netherlands, or Nak46* (AQGV (SEQ ID NO:120) provided by Diosynth BV, The Netherlands). Mice were treated with 0.5 mg/kg of 5 mg/kg peptide for one hour, after which, spleens were isolated and spleen cell suspensions were made. Spleen cell suspensions were pooled per group and cultured in vitro (in three-fold) in the presence of PBS or of anti-CD3 antibody and proliferation was tested at 0, 12, 24 and 48 hours after culture.
To further study anti-cell-cycle activity of various oligopeptides, an in vitro experiment in […] of mice stimulated with anti-CD3 was performed. The aim was to test representative oligopeptides for their effect on proliferation during rapid growth induced by CD3 when avid cell division occurs. Mice (n=5) were treated i.p. PBS, Nak4 (LQGV (SEO ID NO:117)), Nak47 (LAGV (SEQ ID NO:121)), Nak46 (AQGV (SEQ ID NO:120)) provided by Ansynth BV, The Netherlands, or Nak46* (AQGV (SEQ ID NO:120) provided by Diosynth BV, The Netherlands). Mice were treated with 0.5 mg/kg or 5 mg/kg peptide for one hour after which spleens were isolated and spleen cell suspensions were made. Spleen cell suspensions were pooled per group and cultured in vitro (in three-fold) in the presence of PBS or of anti-CD3 antibody and proliferation was tested at 0, 12, 24 and 48 hours after culture.

[2] = test system: high dose LPS (E. coli 026:B6)-induced septic shock in BALB/c mice; assay: high dose LPS-induced septic shock, peptide administered twice; assay type: in vivo; conditions: peptide twice (t = 2 and 24 hours) 5 mg/kg
Experimental: Mice used in sepsis or septic shock experiments: Female BALB/c mice of eight to twelve weeks of age were used for all experiments. The animals were bred in our facility under specific pathogen-free conditions according to the protocols described in the […] of European Laboratory Animal Science Associations (FELASA) Working group on Animal Health (Laboratory Animals 28:1-24, 1994).
Injection protocols: For the endotoxin model, BALB/c mice were injected i.p. with 150-300 μg LPS (E. coli 026:B6; Difco Lab., Detroit, Mich., USA). Control groups were treated with PBS i.p. only. To test the effect of peptides, they were dissolved in PBS and injected i.p. at predetermined points in time after LPS treatment.
Mice were scored for sickness severity using the following measurement scheme: • 0 No abnormalities. • 1 Percolated fur, but no detectable behavior differences compared to normal mice. • 2 Percolated fur, huddle reflex, responds to stimuli (such as tap on cage), just as active during handling as healthy mouse. • 3 Slower response to tap on cage, passive or docile when handled, but still curious when alone in a new setting. • 4 Lack of curiosity, little or no response to stimuli, quite immobile. • 5 Labored breathing, inability or slow to self-right after being rolled onto back (moribund, sacrificed). • D Dead.
A second set of septic shock experiments were set up to determine which of the peptides LQG, LQGV (SEQ ID NO:117), VLPALP (SEQ ID NO:140), VLPALPQ (SEQ ID NO:143), MTR, MTRV (SEQ ID NO:119), VVC or AQG, AQGV (SEQ ID NO:120), LAG and LAGV (SEQ ID NO:121) were capable of inhibiting high dose LPS-induced septic shock in mice by treating mice with a double dose of peptide at two and 24 hours after LPS treatment. At each treatment, peptides were used at 5 mg/kg bodyweight. BALB/c mice were injected i.p. with high doses LPS (E. coli 026:B6; Difco Lab., Detroit, Mich. USA), predetermined to be leading to 80 to 100% mortality in 24 to 72 hours.

[3] = test system: cell-cycle marker pCDG and auxin-responsive marker DR5::GUS; assay: Arabidopsis thaliana seedling cell-cycle analysis (GUS markers); conditions: for identified as useful peptide for treatment of radiation injury from cell-cycle studies in plants and in vitro proliferation studies: Results from Examples 9 and 10
How it was run: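 Four-day-old Ws-0 seedlings carrying GUS reporters (pCDG, DR5::GUS) were exposed to peptides at 5 mg/ml in PBS pH 8 for four and eight hours. GUS staining with 2 mM X-Gluc for 16 hours; distribution in root, root-hypocotyl transition zone and cotyledons assessed by DIC microscopy after chloral hydrate clearing.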

Substance | proliferation of anti-CD3 stimulated spleen cells (in words) [1] | mice with sickness score 1, effect at t = 48 hours ([2]; LPS dose 10.5) | mice with sickness score 2, effect at t = 24 hours ([2]; LPS dose 10.5) | mice with sickness score 1, effect at t = 48 hours ([2]; LPS dose 11) | identified as useful peptide for treatment of radiation injury from cell-cycle studies in plants and in vitro proliferation studies [3] | mice scored D (dead), effect at t = 48 hours ([2]; LPS dose 10.5) | mice with sickness score 3, effect at t = 24 hours ([2]; LPS dose 10.5) | mice with sickness score 5, effect at t = 24 hours ([2]; LPS dose 10.5) | mice scored D (dead), effect at t = 48 hours ([2]; LPS dose 11) | mice with sickness score 4, effect at t = 24 hours ([2]; LPS dose 11) | mice with sickness score 5, effect at t = 24 hours ([2]; LPS dose 11) | mice with sickness score 4, effect at t = 48 hours ([2]; LPS dose 11) | further results
AQGV | reduction of proliferation | 5 | 3 | 6 | useful |  |  |  |  |  |  |  | mice with sickness score 1, effect at t = 24 hours ([2]; LPS dose 10.5): 2; mice with sickness score 1, effect at t = 24 hours ([2]; LPS dose 11): 2; mice with sickness score 2, effect at t = 24 hours ([2]; LPS dose 11): 4
LAGV (tetramer peptide) | reduction of proliferation |  |  |  | useful | 4 | 1 | 4 | 4 | 1 | 3 |  | mice with sickness score 3, effect at t = 48 hours ([2]; LPS dose 10.5): 1; mice scored D (dead), effect at t = 24 hours ([2]; LPS dose 11): 1; mice with sickness score 3, effect at t = 24 hours ([2]; LPS dose 11): 1; mice with sickness score 3, effect at t = 48 hours ([2]; LPS dose 11): 2
LQG |  |  |  |  |  | 5 |  | 5 | 6 | 6 |  |  | 
LQGV | reduction of proliferation |  |  |  | useful | 5 |  | 5 | 4 | 2 | 4 | 2 | effect on cell-cycle marker (pCDG) and auxin-responsive marker (DR5::GUS) (in words) ([3]; seedlings incubated four and eight hours, 5 mg/ml peptide solution): clear effect on the tested markers
MTR |  | 5 | 1 | 6 |  |  |  |  |  |  |  |  | mice with sickness score 1, effect at t = 24 hours ([2]; LPS dose 10.5): 4; mice with sickness score 1, effect at t = 24 hours ([2]; LPS dose 11): 6
MTRV |  | 2 | 1 | 6 | useful |  | 1 |  |  | 2 |  |  | mice with sickness score 2, effect at t = 48 hours ([2]; LPS dose 10.5): 3; mice with sickness score 4, effect at t = 24 hours ([2]; LPS dose 10.5): 3; mice with sickness score 2, effect at t = 24 hours ([2]; LPS dose 11): 4
VLPALP (hexamer peptide) |  |  |  |  | useful | 5 |  | 5 | 6 | 2 | 4 | 1 | 
VLPALPQ (septamer peptide) |  |  | 1 |  |  | 2 | 2 | 2 | 2 |  | 6 | 3 | mice with sickness score 2, effect at t = 48 hours ([2]; LPS dose 10.5): 3; mice with sickness score 5, effect at t = 48 hours ([2]; LPS dose 11): 1; mice with sickness score 2, effect at t = 48 hours ([2]; LPS dose 11, 5 mg/kg): 4 and 2
